Key:
[1] = SPR reference surface (nonfunctionalized dextran); assay type: binding; conditions: pH 7.5, raw SPR data
Protocol: (§1) Two commercially available functionalized phenylboronic acids (Frontier Scientific, Logan Utah) were screened to compare the effect of electron withdrawing substituents (2,5-difluorophenylboronic acid, 1, FIG. 3a), versus a ortho-hydroxymethyl substituent (2-hydroxymethylphenylboronic acid, 2, FIG. 3a) prepared at 50 mM concentrations in 25 mM buffers at the appropriate pH (pH 5.5 acetate buffer, pH 7.5 phosphate buffer, and pH 9.5 carbonate buffer). HIV-1 CN54 gp120 with a molecular weight of 130 kDa was obtained from the NIH AIDS Research and Reference Reagent Program (Division of AIDS, NIH). CN54 gp120 was attached to a CM4 sensor chip using standard amine coupling chemistry with a density of 10,000 RU. Briefly, using HBS-P as the running buffer, the carboxymethyl dextran surface of a surface Plasmon resonance (SPR) chip (CM4 chip, Biacore) was activated with an injection of a 1:1 ratio of 0.4M 1-ethyl-3-(3-dimethylaminopropyl)carbodiimide hydrochloride (EDC)/0.1M N-hydroxysuccinimide (NHS). CN54 gp120 in 10 mM sodium acetate (pH 5.5) was then coupled to the surface. The remaining activated groups were then blocked by an injection of 1M ethanolamine (pH 8.5).

[2] = Solubility of ligand in buffer for SPR; assay type: physicochemical; conditions: pH 5.5
Protocol: as §1

HIV-1 CN54 gp120 = assay: Surface plasmon resonance screening of phenylboronic acid ligands with HIV gp120; assay type: binding; conditions: SPR, 25° C., 1:1 interaction model, pH 5.5 / 7.5 / 9.5 buffers
Protocol: Two commercially available functionalized phenylboronic acids (Frontier Scientific, Logan Utah) were screened to compare the effect of electron withdrawing substituents (2,5-difluorophenylboronic acid, 1, FIG. 3a), versus a ortho-hydroxymethyl substituent (2-hydroxymethylphenylboronic acid, 2, FIG. 3a) prepared at 50 mM concentrations in 25 mM buffers at the appropriate pH (pH 5.5 acetate buffer, pH 7.5 phosphate buffer, and pH 9.5 carbonate buffer). HIV-1 CN54 gp120 with a molecular weight of 130 kDa was obtained from the NIH AIDS Research and Reference Reagent Program (Division of AIDS, NIH). CN54 gp120 was attached to a CM4 sensor chip using standard amine coupling chemistry with a density of 10,000 RU. […] Affinity for the gp120 functionalized surface was determined by comparing raw data to three reference cells: two of the unactivated CM4 surfaces, and an activated CM4 surface capped completely by ethanolamine. […] The association and dissociation phases were monitored for 1-3 min and 3-10 min respectively. Data was fitted to a 1:1 interaction model and the apparent affinity, KD, was determined using Scrubber II software. […]
Binding affinities in the presence of the seminal component fructose were also analyzed. […]

With OB(O)c1cc(F)ccc1F [compound 1, 2,5-difluorophenylboronic acid] as the compound, how does the “binding to nonfunctionalized dextran surface” value [1] read?
Its value is “no binding”.

What does the source list for OCc1ccccc1B(O)O [compound 2, 2-hydroxymethylphenylboronic acid]?
solubility [2]: not soluble; apparent affinity, KD, to gp120 functionalized surface (HIV-1 CN54 gp120): slightly higher affinity compared to the more acidic 1

Reference: patent US20130164249A1, “COMPOSITIONS AND METHODS FOR INHIBITING VIRAL AND BACTERIAL ACTIVITY” (priority 2007, published 2013)
